The results in this text go back to patent US12612410B2 (CHILDREN'S HOSPITAL MEDICAL CENTER, priority 2020, dated 2026).

This assay relates to MOLM14 (D835Y) cells. Briefly: Combination drug screening with Venetoclax in MOLM14 (D835Y) cells. Format: cell-based. Also on record: key to Sum Excess HSA: negative = synergy, positive = antagonism with Venetoclax; relative score. Conditions: 10 × 10 dataset; for Sum Excess HSA: combination with Venetoclax, 48 hours. As for the experimental part: Combination drug therapy has the potential to produce enhanced effects with lower side effects not obtained using either agent alone, or beyond the additive effect of the different concentrations of the two different agents. To determine whether enhanced effects are observed in different drug combinations in the setting of FLT3 resistance, combination drug screening was performed as previously described (Mathews-Griner, L. A. et al., Proc. Nat. Acad. Sci., 2014, 111:2439-2454; Lin, G. L. et al., Sci. Trans. Med., 2019, 11:eaaw0064). Briefly, 10 nL of compounds were acoustically dispensed into 1536-well white polystyrene tissue culture-treated plates with an Echo 550 acoustic liquid handler (Labcyte). MOLM14 (D835Y) Cells were then added to compound-containing plates at a density of 500-cells/well in 5 μL of medium. A 10-point custom concentration range was used for all listed drugs. Plates were incubated for 48 hours at standard incubator conditions covered by a stainless steel gasketed lid to prevent evaporation. 48 h post compound addition, 3 μL of Cell Titer Glo (Promega) were added to each well and plates were incubated at room temperature for 15 minutes with the stainless-steel lid in place. Luminescence readings were taken using a Viewlux imager (PerkinElmer) with a 2 second exposure time per plate.
The sum excess HSA scores for Compounds 25, 31, 35, 50, 51, 80, 82, 97, 118, and 119 in Table 28 are used herein to quantitate drug interactions for enhanced pharmacological effects in the MOLM14 (D835Y) cell line. This is a FLT3-ITD cell line that harbors a FLT3 resistance mutation in the tyrosine kinase domain at position 835 (D835Y). More information on excess HSA scores can be found in Vlot, Anna H. C. et al., Drug Discovery Today, 2019, 24(12):2286-2298. […] However, different methodologies may yield different numerical scores, and different definitions of what constitutes a deviation from mere additivity vs true drug synergy. Table 28 summarizes the combination results of Compounds 25, 31, 35, 50, 51, 80, 82, 97, 118, and 119 with Venetoclax. A large negative sum excess HSA score indicates profound synergism with Venetoclax, whereas a positive excess HSA score indicates antagonism with Venetoclax in certain drug combinations.
The degree to which combination therapy has to potential to produce enhanced effects with lower side effects not obtained using either agent alone, or beyond the additive effect of the different concentrations of the two different agents depends on the nature of the drugs used in the combination, and the specific doses/concentrations at which they are ultimately used in the therapeutic regimen. A negative excess sum HSA score illustrates that the drug combination is better than either drug alone (at the concentrations being studied), and the sum excess HSA score is a measurement of the overall deviation from additivity that is observed across the entire matrix of concentrations studied. […] However, the utility in certain drug combinations vs others should not be distinguished based on cutoffs between excess sum HSA scores, because the score itself is only a relative indicator that is completely dependent on experimental design and is not an absolute number. Furthermore, the concept of what constitutes clinically meaningful drug synergy is something that is still being debated, not only between pharmacologists and physicians, but amongst pharmacologists themselves. The data in Table 28 illustrate that the nature of the combined effect is dependent on the characteristics of each individual compound, as not every compound produced a synergistic interaction in combination with Venetoclax.

Molecules are shown by their SMILES.

In the case of `CC(O)(c1cn2c(-c3cccc(N[C@H]4CNCC[C@@H]4F)n3)cnc2cn1)C(F)(F)F` (single isomer, unassigned) [Compound 80], the “Sum Excess HSA” value is −261.7.

As to `CC(O)(c1cn2c(-c3cccc(N[C@H]4CNCC[C@@H]4F)n3)cnc2cn1)C(F)(F)F` (single isomer, unassigned) [Compound 82], the “Sum Excess HSA” value is given as −155.8.

Turning to `FC(F)c1cn2c(-c3cccc(N[C@H]4CNCC[C@@H]4F)n3)cnc2cn1` [Compound 25, 6-(6-(difluoromethyl)imidazo[1,2-a]pyrazin-3-yl)-N-((3S,4S)-4-fluoropiperidin-3-yl)pyridin-2-amine], the “Interaction with Venetoclax” value is reported as “Synergistic” and the “Sum Excess HSA” value is recorded as −834.6.

`CC(C)(O)c1cn2c(-c3cccc(N[C@H]4CNCC[C@@H]4F)n3)cnc2cn1` [Compound 31, 2-(3-(6-(((3S,4S)-4-fluoropiperidin-3-yl)amino)pyridin-2-yl)imidazo[1,2-a]pyrazin-6-yl)propan-2-ol]: the “Sum Excess HSA” value is −150.3956.

As for `CC(C)(O)c1cn2c(-c3nc(N[C@H]4CNCC[C@@H]4F)c(F)cc3F)cnc2cn1` [Compound 35, 2-(3-(3,5-difluoro-6-(((3S,4S)-4-fluoropiperidin-3-yl)amino)pyridin-2-yl)imidazo[1,2-a]pyrazin-6-yl)propan-2-ol], the “Interaction with Venetoclax” value is “Antagonistic” and the “Sum Excess HSA” value worked out at 386.4.

As for `F[C@H]1CNC[C@@H]1Nc1cccc(-c2cnc3cnc(C4CC4)cn23)n1` [Compound 50, 6-(6-cyclopropylimidazo[1,2-a]pyrazin-3-yl)-N-((3S,4S)-4-fluoropyrrolidin-3-yl)pyridin-2-amine], the “Sum Excess HSA” value was −552.

Turning to `F[C@H]1CCNC[C@@H]1Nc1cccc(-c2cnc3cnc(C4CC4)cn23)n1` [Compound 51, 6-(6-cyclopropylimidazo[1,2-a]pyrazin-3-yl)-N-((3S,4S)-4-fluoropiperidin-3-yl)pyridin-2-amine], the “Sum Excess HSA” value is recorded as −644.5.

As for `O=S1(=O)CCCN1c1cn2c(-c3cccc(N[C@H]4CNCC[C@@H]4F)n3)cnc2cn1` [Compound 97, 2-(3-(6-(((3S,4S)-4-fluoropiperidin-3-yl)amino)pyridin-2-yl)imidazo[1,2-a]pyrazin-6-yl)isothiazolidine 1,1-dioxide], the “Sum Excess HSA” value is given as −171.7.

With `O=C1NCCN1c1cn2c(-c3cccc(N[C@H]4CNCC[C@@H]4F)n3)cnc2cn1` [Compound 118, 1-(3-(6-(((3S,4S)-4-fluoropiperidin-3-yl)amino)pyridin-2-yl)imidazo[1,2-a]pyrazin-6-yl)imidazolidin-2-one], the “Sum Excess HSA” value is −550.9.

For `O=C1CCCN1c1cn2c(-c3cccc(N[C@H]4CNCC[C@@H]4F)n3)cnc2cn1` [Compound 119, 1-(3-(6-(((3S,4S)-4-fluoropiperidin-3-yl)amino)pyridin-2-yl)imidazo[1,2-a]pyrazin-6-yl)pyrrolidin-2-one], the “Sum Excess HSA” value is on record as −762.
